{"source": "patent US7514592B2", "about": "“Inducible heart attack animal model” (Massachusetts Institute of Technology, priority 2004, dated 2009)", "origin": "cited, not measured here", "system": "SR-BI knockout females", "conditions": "homozygous SR-BI knockout dams (infertile); administered during the breeding protocol"}
{"compound": "CC(C)(Sc1cc(C(C)(C)C)c(O)c(C(C)(C)C)c1)Sc1cc(C(C)(C)C)c(O)c(C(C)(C)C)c1", "note": "[probucol]", "values": [{"measurement": "fertility in SR-BI knockout females", "value": "restore fertility"}]}
